# Source: patent US10441663B2, “Methods for treating cancer” (Bicycle Therapeutics Limited, priority 2016, dated 2019)
# *1 amine or outer side, *2 acyl side, *3 side chain or, on linkers, in order; H or OH if unused. Where a SMILES comes first, the peptide text is derived from it. Bridges are numbered along the chain shown (N, C = ends). [ ]: non-standard residue; d: D form. 1Nal = N[C@@H](Cc1cccc2ccccc12)C(=O)O; TBMB = c1c(C[*:1])cc(C[*:3])cc1C[*:2]; Tle = CC(C)(C)[C@H](N)C(=O)O; βAla = NCCC(=O)O; Sar = CNCC(=O)O
# Experiments:
# [1] = target: MMP16 (Homo sapiens, UniProt P51512); test: Binding to related MMP family member
# Chain of MMP16 (P51512 120-607, species assumed): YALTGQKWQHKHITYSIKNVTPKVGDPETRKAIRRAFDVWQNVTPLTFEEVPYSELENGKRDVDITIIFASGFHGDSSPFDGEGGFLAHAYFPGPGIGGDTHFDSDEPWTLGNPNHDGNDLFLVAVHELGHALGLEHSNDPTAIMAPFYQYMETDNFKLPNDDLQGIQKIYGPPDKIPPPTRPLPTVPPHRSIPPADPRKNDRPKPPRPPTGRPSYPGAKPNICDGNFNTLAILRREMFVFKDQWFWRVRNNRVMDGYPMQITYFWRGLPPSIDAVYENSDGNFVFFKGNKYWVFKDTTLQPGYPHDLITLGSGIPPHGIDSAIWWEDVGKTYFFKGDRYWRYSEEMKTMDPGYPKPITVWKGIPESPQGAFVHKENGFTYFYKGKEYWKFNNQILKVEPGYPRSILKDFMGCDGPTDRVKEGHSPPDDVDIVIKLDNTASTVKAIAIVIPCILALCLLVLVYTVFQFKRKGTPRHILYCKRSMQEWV
# [2] = target: MMP9 (Homo sapiens, UniProt P14780); test: Effect on related MMP catalytic activity; type: biochemical; details: in vitro
# Chain of MMP9 (P14780 94-707, species assumed): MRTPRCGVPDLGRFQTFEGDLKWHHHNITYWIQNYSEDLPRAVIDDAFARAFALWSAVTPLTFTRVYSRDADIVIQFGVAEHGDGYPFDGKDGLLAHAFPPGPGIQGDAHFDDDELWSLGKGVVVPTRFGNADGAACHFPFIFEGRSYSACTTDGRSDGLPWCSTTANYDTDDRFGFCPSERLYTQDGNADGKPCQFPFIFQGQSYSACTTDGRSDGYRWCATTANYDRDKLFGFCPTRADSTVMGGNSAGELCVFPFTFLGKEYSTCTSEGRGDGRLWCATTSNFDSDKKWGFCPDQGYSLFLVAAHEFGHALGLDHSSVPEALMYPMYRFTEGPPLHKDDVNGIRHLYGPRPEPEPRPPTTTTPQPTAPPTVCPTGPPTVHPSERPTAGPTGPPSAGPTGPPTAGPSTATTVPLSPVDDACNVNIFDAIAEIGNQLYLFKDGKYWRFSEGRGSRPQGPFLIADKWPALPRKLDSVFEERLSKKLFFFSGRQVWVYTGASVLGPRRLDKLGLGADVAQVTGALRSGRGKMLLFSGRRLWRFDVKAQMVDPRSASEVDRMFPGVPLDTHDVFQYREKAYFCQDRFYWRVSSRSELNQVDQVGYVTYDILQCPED
# Description: (§1) A bicyclic constrained peptide binder (Bicycle) was identified that binds to the hemopexin domain of MT1 with an apparent Kd of approximately 2 nM. […] Bicycle drug conjugates (BDCs) with a variety of linkers and cytotoxic payloads were prepared which retained binding to MT1.
# [3] = target: T1, MMP2 (Homo sapiens, UniProt P08253); test: Effect on related MMP catalytic activity; type: biochemical; details: in vitro
# T1 sequence (P08253 110-660, species assumed): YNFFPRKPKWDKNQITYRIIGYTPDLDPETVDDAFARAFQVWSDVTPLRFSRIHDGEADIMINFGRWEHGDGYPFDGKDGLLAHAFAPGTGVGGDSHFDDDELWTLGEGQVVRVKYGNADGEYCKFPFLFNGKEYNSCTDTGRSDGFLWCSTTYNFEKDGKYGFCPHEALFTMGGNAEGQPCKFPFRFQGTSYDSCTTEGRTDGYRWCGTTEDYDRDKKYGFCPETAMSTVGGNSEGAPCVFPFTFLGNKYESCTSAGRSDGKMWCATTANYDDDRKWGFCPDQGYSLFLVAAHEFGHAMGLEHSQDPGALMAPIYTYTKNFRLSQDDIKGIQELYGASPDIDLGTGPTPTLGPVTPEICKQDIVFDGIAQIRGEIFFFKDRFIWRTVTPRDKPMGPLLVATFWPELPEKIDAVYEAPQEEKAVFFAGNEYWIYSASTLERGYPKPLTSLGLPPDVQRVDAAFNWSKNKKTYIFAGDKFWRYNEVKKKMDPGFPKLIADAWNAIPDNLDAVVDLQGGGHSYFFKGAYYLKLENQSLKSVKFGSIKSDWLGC
# Description: as §1
# [4] = target: T2, MMP1 (Homo sapiens, UniProt P03956); test: Effect on related MMP catalytic activity; type: biochemical; details: in vitro
# T2 sequence (P03956 100-469, species assumed): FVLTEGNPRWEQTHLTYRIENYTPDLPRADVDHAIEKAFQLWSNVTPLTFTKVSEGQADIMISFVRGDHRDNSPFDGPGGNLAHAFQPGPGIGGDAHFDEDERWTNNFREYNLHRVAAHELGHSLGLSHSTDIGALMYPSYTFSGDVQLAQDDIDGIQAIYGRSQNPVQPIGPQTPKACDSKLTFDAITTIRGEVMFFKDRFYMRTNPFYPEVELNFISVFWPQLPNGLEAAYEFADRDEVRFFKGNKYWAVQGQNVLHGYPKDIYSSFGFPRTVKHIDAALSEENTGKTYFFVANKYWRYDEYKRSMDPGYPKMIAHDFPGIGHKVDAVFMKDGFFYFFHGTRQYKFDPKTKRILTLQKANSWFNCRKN
# Description: as §1
# [5] = tested on: catalytic domain (MT1); test: Bicycle peptide binding to catalytic domain
# Description: as §1
# [6] = tested on: cell migration or invasion; test: Effect on cell migration or invasion; type: cell-based; details: in vitro
# Description: as §1
# [7] = target: T3, Pro-MMP1 (Homo sapiens, UniProt P03956); test: Binding to related MMP family member
# T3 construct: MMP1, Pro-MMP1, MMP2
# T3 sequence (P03956 20-469 limits assumed): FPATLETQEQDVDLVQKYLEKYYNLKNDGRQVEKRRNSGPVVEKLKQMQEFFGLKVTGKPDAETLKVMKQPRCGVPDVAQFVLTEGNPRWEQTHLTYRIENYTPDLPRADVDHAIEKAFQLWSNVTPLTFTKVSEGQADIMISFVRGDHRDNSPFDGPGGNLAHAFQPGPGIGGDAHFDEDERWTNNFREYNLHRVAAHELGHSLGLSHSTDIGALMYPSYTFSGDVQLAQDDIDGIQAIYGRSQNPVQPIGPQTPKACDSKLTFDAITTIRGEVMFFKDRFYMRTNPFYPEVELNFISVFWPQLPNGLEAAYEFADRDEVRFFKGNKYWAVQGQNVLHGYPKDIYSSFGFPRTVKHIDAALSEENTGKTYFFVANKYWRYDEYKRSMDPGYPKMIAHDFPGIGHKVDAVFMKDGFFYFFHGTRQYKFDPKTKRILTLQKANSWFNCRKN
# [8] = target: MMP15 (Homo sapiens, UniProt P51511); test: Binding to related MMP family member
# Chain of MMP15 (P51511 132-669, species assumed): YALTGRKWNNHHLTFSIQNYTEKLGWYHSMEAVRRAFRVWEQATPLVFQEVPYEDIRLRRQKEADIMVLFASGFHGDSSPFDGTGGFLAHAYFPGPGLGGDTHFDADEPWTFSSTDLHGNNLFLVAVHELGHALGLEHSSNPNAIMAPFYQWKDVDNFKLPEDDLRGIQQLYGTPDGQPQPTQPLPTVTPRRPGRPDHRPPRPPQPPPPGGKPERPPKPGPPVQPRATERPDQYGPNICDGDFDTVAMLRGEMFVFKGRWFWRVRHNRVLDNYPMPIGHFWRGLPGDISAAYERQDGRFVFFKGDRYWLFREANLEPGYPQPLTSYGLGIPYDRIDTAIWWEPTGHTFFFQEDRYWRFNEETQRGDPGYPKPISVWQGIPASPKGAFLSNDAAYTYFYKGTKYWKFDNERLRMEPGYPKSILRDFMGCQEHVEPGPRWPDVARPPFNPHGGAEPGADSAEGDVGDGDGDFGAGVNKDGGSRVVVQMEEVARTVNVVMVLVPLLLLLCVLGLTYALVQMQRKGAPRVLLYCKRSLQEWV
# [9] = target: MMP24 (Homo sapiens, UniProt Q9Y5R2); test: Binding to related MMP family member
# Chain of MMP24 (Q9Y5R2 156-645, species assumed): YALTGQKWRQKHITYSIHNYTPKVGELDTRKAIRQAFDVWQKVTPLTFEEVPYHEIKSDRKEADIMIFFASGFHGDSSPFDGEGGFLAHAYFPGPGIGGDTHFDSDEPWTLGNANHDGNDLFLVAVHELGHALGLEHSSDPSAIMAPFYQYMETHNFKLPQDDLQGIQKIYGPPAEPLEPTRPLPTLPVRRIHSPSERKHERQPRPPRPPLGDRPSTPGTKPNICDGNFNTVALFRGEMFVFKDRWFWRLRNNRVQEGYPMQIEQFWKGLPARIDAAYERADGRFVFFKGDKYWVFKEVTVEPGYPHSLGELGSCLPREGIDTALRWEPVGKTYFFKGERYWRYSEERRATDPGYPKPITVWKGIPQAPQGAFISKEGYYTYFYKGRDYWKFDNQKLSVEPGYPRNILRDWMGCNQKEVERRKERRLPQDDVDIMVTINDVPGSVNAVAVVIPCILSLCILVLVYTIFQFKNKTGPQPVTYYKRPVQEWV
# Description: as §1
# [10] = target: T1, MMP2; test: Binding to related MMP family member
# Description: as §1
# [11] = target: T2, MMP1; test: Binding to related MMP family member
# Description: as §1
# [12] = target: MT1 (Homo sapiens, UniProt P50281); test: Effect on catalytic activity of the protease in vitro; type: biochemical
# Description: as §1
smiles,measurement,setting,value
C[C@H](NC(=O)CN(C)C(=O)CN(C)C(=O)CN(C)C(=O)CN(C)C(=O)CN(C)C(=O)CN(C)C(=O)CN(C)C(=O)CN(C)C(=O)CN(C)C(=O)CN(C)C(=O)CCN)C(=O)N[C@H]1CSCc2cc3cc(c2)CSC[C@H](NC(=O)[C@@H](C)NC(=O)[C@H](Cc2cccc4ccccc24)NC(=O)[C@H](CCC(=O)O)NC(=O)[C@H](CC(N)=O)NC(=O)[C@@H](C)NC1=O)C(=O)N[C@@H](CCC(=O)O)C(=O)N[C@@H](CC(=O)O)C(=O)N[C@@H](Cc1ccccc1)C(=O)N[C@@H](Cc1ccc(O)cc1)C(=O)N[C@@H](CC(=O)O)C(=O)N[C@@H](C(C)(C)C)C(=O)N[C@H](C(N)=O)CSC3 [N241] (H-[βAla][Sar][Sar][Sar][Sar][Sar][Sar][Sar][Sar][Sar][Sar]AC[dA]NE[1Nal][dA]CEDFYD[Tle]C-NH2; linker 13-19-26 via TBMB; N-terminus and C-terminus assumed),binding,[1],no binding
same,impact on catalytic activity,[2],no direct impact
same,impact on catalytic activity,[3],no direct impact
same,impact on catalytic activity,[4],no direct impact
same,binding,[5],no binding
same,impact on cell migration or invasion,[6],no direct impact
same,binding,[7],no binding
same,binding,[8],no binding
same,binding,[9],no binding
same,binding,[10],no binding
same,binding,[11],no binding
same,impact on catalytic activity,[12],no direct impact
